Reference: patent US12252701B2, “Chimeric antigen receptor T cell therapy” (KITE PHARMA, INC., priority 2020, dated 2025)

How the values were obtained:
[1] = system: NALM6.GFP.LUC.CD19 target cells; assay: Serial killing assay; assay type: cell-based, human
Procedure: CD19 CAR-T cells were thawed in RPMI media supplemented with HEPES, Penicillin/Streptomycin/L-Glutamine and 10% FBS and rested overnight. The following day, drugs were serially diluted and prepared in 96-well plates. Rested T cells were counted and normalized so that 25,000 or 8,333 T cells were plated with 25,000 NALM6.GFP.LUC.CD19 target cells (1:1 or 1:3 Effector:Target ratio) in the prepared 96-well plates. At 16 hour post-incubation and every 3-4 days, T cell killing of targets was measured via luciferase detection. D-luciferin substrate was added to the co-culture wells at a final concentration of 0.14 mg/mL and plates were incubated at 37° C. in the dark for 10 minutes. Luminescent signal was read immediately after in a VarioSkan™ LUX microplate reader. T cell-mediated cytotoxicity was calculated as follows: % Cytotoxicity=[1−luciferase signal of (sample of interest/target alone control)]*100. Afterwards, co-cultures were stained with LIVE/DEAD and antibodies against CD4, CD8 and KIP-1 and then washed. Cells were then analyzed and quantified via the Attune NxT flow cytometer. T cells were then repeatedly stimulated with fresh 25,000 target cells, and this process was repeated every 3-4 days.

[2] = cited from earlier work
CAR-T cells = assay: CAR-T cell expansion assay (KIP-1 or CD3/CD28 stimulation); conditions: for % viabili.: CD3/CD28 stimulation; for % viabi.: KIP-1 stimulation
[3] = system: NALM6.GFP.LUC.CD19 target cells; assay: Serial killing assay of CAR-T, percent cytotoxicity by luciferase detection; conditions: two different E:T ratios, dose titration
Procedure: The percent cytotoxicity to NALM6.GFP.LUC.CD19 target cells was measured by luciferase detection at each round.
In one embodiment, a serial killing assay is a combination of cell killing and how long it takes for CAR T cells to get exhausted under repeated stimulation. In one embodiment, a serial killing assay is a surrogate measure for CAR T cell persistence in vivo.

CCS(=O)(=O)N1CC(CC#N)(n2cc(-c3ncnc4[nH]ccc34)cn2)C1 [baricitinib]
reduction of clinical dosing required to avoid negative impacts on product performance [1]: roughly 4 fold
Cmax ([2]; clinical dosing 2 mg daily, cell prints (nM)): 45.7 nM
Protein binding ([2]; plasma protein binding, reported): 50%
% viability (CAR-T cells; CD3/CD28, dose 5 nM, day 4): 72.9%
% viability (CAR-T cells; CD3/CD28, dose 5 nM, day 8): 55.7%
% viability (CAR-T cells; CD3/CD28, dose 5 nM, day 12): 83.1%
% viability (CAR-T cells; CD3/CD28, dose 10 nM, day 4): 70.7%
% viability (CAR-T cells; CD3/CD28, dose 10 nM, day 12): 84.7%
% viabili. (CAR-T cells; 10 nM, Day 0): 84%
% viabili. (CAR-T cells; 10 nM, Day 4): 82.3%
% viabili. (CAR-T cells; 10 nM, Day 8): 90.2%
% viabili. (CAR-T cells; 10 nM, Day 12): 80.2%
% viabili. (CAR-T cells; 20 nM, Day 0): 84%
% viabili. (CAR-T cells; 20 nM, Day 4): 86.4%
% viabili. (CAR-T cells; 20 nM, Day 8): 82.5%
% viabili. (CAR-T cells; 20 nM, Day 12): 76.7%
% viabili. (CAR-T cells; 40 nM, Day 0): 84%
% viabili. (CAR-T cells; 40 nM, Day 4): 89.8%
% viabili. (CAR-T cells; 40 nM, Day 8): 85.7%
% viabili. (CAR-T cells; 40 nM, Day 12): 74.7%
% viabili. (CAR-T cells; 60 nM, Day 0): 84%
% viabili. (CAR-T cells; 60 nM, Day 4): 91.7%
% viabili. (CAR-T cells; 60 nM, Day 8): 91.3%
% viabili. (CAR-T cells; 60 nM, Day 12): 71.5%
% viabili. (CAR-T cells; 80 nM, Day 0): 84%
% viabili. (CAR-T cells; 80 nM, Day 4): 91.1%
% viabili. (CAR-T cells; 80 nM, Day 8): 83.6%
% viabili. (CAR-T cells; 80 nM, Day 12): 67.7%
% viabili. (CAR-T cells; 100 nM, Day 0): 84%
% viabili. (CAR-T cells; 100 nM, Day 4): 86.8%
% viabili. (CAR-T cells; 100 nM, Day 8): 73.3%
% viabili. (CAR-T cells; 100 nM, Day 12): 76.3%
% viability (CAR-T cells; KIP-1, dose 10 nM, day 8): 58.7%
% viabi. (CAR-T cells; 10 nM, Day 0): 84%
% viabi. (CAR-T cells; 10 nM, Day 4): 64.7%
% viabi. (CAR-T cells; 10 nM, Day 8): 55.2%
% viabi. (CAR-T cells; 10 nM, Day 12): 70.4%
% viabi. (CAR-T cells; 20 nM, Day 0): 84%
% viabi. (CAR-T cells; 20 nM, Day 4): 61.3%
% viabi. (CAR-T cells; 20 nM, Day 8): 78%
% viabi. (CAR-T cells; 20 nM, Day 12): 73.5%
% viabi. (CAR-T cells; 40 nM, Day 0): 84%
% viabi. (CAR-T cells; 40 nM, Day 4): 65%
% viabi. (CAR-T cells; 40 nM, Day 8): 77.8%
% viabi. (CAR-T cells; 40 nM, Day 12): 68.8%
% viabi. (CAR-T cells; 60 nM, Day 0): 84%
% viabi. (CAR-T cells; 60 nM, Day 4): 57.8%
% viabi. (CAR-T cells; 60 nM, Day 8): 57.6%
% viabi. (CAR-T cells; 60 nM, Day 12): 70.8%
% viabi. (CAR-T cells; 80 nM, Day 0): 84%
% viabi. (CAR-T cells; 80 nM, Day 4): 66.2%
% viabi. (CAR-T cells; 80 nM, Day 8): 69.4%
% viabi. (CAR-T cells; 80 nM, Day 12): 69.5%
% viabi. (CAR-T cells; 100 nM, Day 0): 84%
% viabi. (CAR-T cells; 100 nM, Day 4): 67.7%
% viabi. (CAR-T cells; 100 nM, Day 8): 78.1%
% viabi. (CAR-T cells; 100 nM, Day 12): 65.2%
impact on CAR-T serial killing (percent cytotoxicity) [3]: negative impacts
